From patent EP0031653A1, “N-Substituted alpha-amino acids, processes for making them and pharmaceutical compositions containing them” (BEECHAM GROUP PLC, priority 1979, dated 1981)
Where two headings read alike, the source gives them in different places.

Legend:
[1] = test system: normolipidaemic rats; assay: Effects on serum lipids in vivo, rat Model A (Oxoid diet); parameters: species or system Male Sprague-Dawley rats; conditions: po, 168 h, compound at 0.1% of the diet (approximately 100 mg/kg/day), 7 days
Method: (§1) The compounds of the Examples above were tested for their effects on serum lipids in vivo using normolipidaemic rats.
(§2) Male Sprague-Dawley rats, 80-100 g, were randomised into groups of 8 after 5-7 days of feeding on the diet. The compounds were fed to the rats at a concentration of 0.1% of the powered diet (i.e. approximately 100 mg/kg/day), unless otherwise stated. The control groups were fed only the diet. At the end of the experiment, i.e. after 7 days, the rats were killed and their individual total serum cholesterol and triglyceride measured in mg/100 ml using a Technicon Autoanalyser. The high density lipoprotein (HDL)-cholesterol fraction, which was obtained from the serum by precipitation with heparin-manganous chloride, was only measured on "pooled" samples from each group.
(§3) The results are shown in Table 1 below. • ^+ Model A used an Oxoid diet. • Model B used a semi-synthetic diet rich in sucrose and cholesterol

[2] = test system: normolipidaemic rats; assay: Effects on serum lipids in vivo, rat Model B (semi-synthetic diet rich in sucrose and cholesterol); parameters: species or system Male Sprague-Dawley rats; conditions: compound at 0.1% of the diet (approximately 100 mg/kg/day), 7 days, * = significant at p<0.05
Method: as §1, §2, §3

[3] = * = significant at p<0.05, read-out: Percentage difference from control values in Total Serum cholesterol
[4] = * = significant at p<0.05, read-out: Percentage difference from control values in Total Serum triglyceride

SMILES | change in vivo at 100 mg/kg/day [1, 3] [%] | change in vivo at 100 mg/kg/day [1, 4] [%] | Percentage difference from control values in Total Serum cholesterol [2] | Percentage difference from control values in Total Serum triglyceride [2]
O=C(O)C(Cc1ccc(Cl)cc1)NCc1ccc(Cl)cc1 (racemic) [Example 7, N-(4-Chlorobenzyl)-DL-4-chlorophenylalanine] | 56 | -50 | – | –
O=C(O)C(Cc1ccccn1)NCc1ccc(Cl)cc1 (racemic) [Example 11, DL-2-(4-Chlorobenzylamino)-3-(2-pyridyl)-propionic acid] | – | – | +27^* % | +27%
O=C(O)C(Cc1ccncc1)NCc1ccc(Cl)cc1 (racemic) [Example 12, DL-2-(4-Chlorobenzylamino)-3-(4-pyridyl)-propionic acid] | – | – | -10% | -10%
O=C(O)C(Cc1c[nH]c2ccccc12)NCc1ccc(Cl)cc1 (racemic) [Example 14, N-4-Chlorobenzyl-DL-tryptophan] | 36 | – | – | –
O=C(O)C(CCc1ccccc1)NCc1ccc(Cl)cc1 (racemic) [Example 15, (DL)-2-(4-Chlorobenzylamino)-4-phenylbutyric acid] | 68 | -11 | – | –
O=C(O)[C@H](Cc1ccccc1)NCc1ccc2c(c1)OCO2 [Example 1, N-(3,4-methylenedioxybenzyl)-L-phenylalanine] | – | -31 | – | –
O=C(O)[C@H](Cc1ccccc1)NCc1ccc(Cl)cc1 [Example 2, N-(4-chlorobenzyl)-L-phenylalanine] | 31 | -40 | +14% | -44^* %
O=C(O)[C@@H](Cc1ccccc1)NCc1ccc(Cl)cc1 [Example 3, N-(4-Chlorobenzyl)-D-phenylalanine] | – | – | +49^* % | -67^* %
O=C(O)[C@H](Cc1ccccc1)NCc1ccc(Br)cc1 [Example 4, N-(4-Bromobenzyl)-L-phenylalanine] | 43 | -40 | – | –
O=C(O)[C@H](Cc1ccccc1)NCc1cccc(C(F)(F)F)c1 [Example 5, N-(3-Trifluoromethylbenzyl)-L-phenylalanine] | 47 | -41 | – | –
O=C(O)[C@H](CSCc1ccccc1)NCc1ccc(Cl)cc1 [Example 8, N-(4-Chlorobenzyl)-S-benzyl-L-cysteine] | 52 | -35 | – | –
O=C(O)[C@H](Cc1ccc(O)cc1)NCc1ccc(Cl)cc1 [Example 17, N-4-chlorobenzyl-tyrosine] | – | -18 | – | –
COC(=O)[C@H](Cc1ccccc1)NCc1ccc(Cl)cc1 [Example 18, N-(4-chlorobenzyl)-L-phenylalanine methyl ester] | 25 | -43 | – | –
